# Assay results published in patent US20250099474A1 (priority 2022, published 2025).
# Tested on: SARS-CoV-2
# Assay: Phase 2/3 study, Phase 2b Part: score of 12 COVID-19 symptoms per unit time
# Assay type: in vivo, human
# Procedure: The primary endpoints of Phase 2b Part were the time-weighted average change in the total score of 12 COVID-19 symptoms per unit time from the start of the first administration (Day 1) to 120 hours (Day 6), and the change from baseline in SARS-CoV-2 virus titer on Day 4, in mild/moderate SARS-CoV-2-infected patients, and the clinical improvement and the antiviral effect of the active drug were confirmed.
# The administration of the active drug is repeated oral administration once a day for 5 days. The 375/125 mg group received 375 mg on Day 1 as a loading dose and 125 mg on Days 2 to 5 as a maintenance dose. The 750/250 mg group received 750 mg on Day 1 as a loading dose and 250 mg on Days 2 to 5 as a maintenance dose.
# The primary efficacy endpoints of Phase 2b Part for mild/moderate SARS-CoV-2-infected patients were the time-weighted average change in the total score of 12 COVID-19 symptoms per unit time from the start of the first administration (Day 1) to 120 hours (Day 6), and the change from baseline in SARS-CoV-2 virus titer on Day 4. The total score of 12 COVID-19 symptoms is the sum of the scores determined by evaluation in four grades (0: none, 1: mild, 2: moderate, 3: severe) in the subject daily records for each of the 12 COVID-19 symptoms (low energy and tiredness, muscle or body aches, headache, chills or shivering, feeling hot or feverish, stuffy and runny nose, sore throat, cough, shortness of breath (difficulty breathing), nausea, vomiting, diarrhea).
# Pairwise comparison was performed between each active drug dose group and the placebo group. […] Pairwise comparison was performed between each active drug dose group and the placebo group.
# The results of classifying the twelve COVID-19 symptoms shown in the above (2-a) into 5 types (acute symptoms, major clinical symptoms, respiratory symptoms, systemic symptoms, and gastrointestinal symptoms) and analyzing the same (ITT population) are shown in the following table. • Acute symptoms: sore throat, cough, feeling hot and feverish • Major clinical symptoms: stuffy and runny nose, sore throat, cough, chills or shivering, feeling hot or feverish • Respiratory symptoms: stuffy and runny nose, sore throat, cough, shortness of breath (difficulty breathing) • Systemic symptoms: low energy and tiredness, muscle or body aches, headache, chills or shivering, feeling hot or feverish • Gastrointestinal symptoms: nausea, vomiting, diarrhea
# [1] = ITT population, 375/125 mg group
# [2] = ITT population, 750/250 mg group
smiles,measurement,setting,value
"Cn1cnc(Cn2c(=O)[nH]/c(=N\c3cc4cn(C)nc4cc3Cl)n(Cc3cc(F)c(F)cc3F)c2=O)n1 [(6E)-6-[(6-chloro-2-methyl-2H-indazol-5-yl)imino]-3-[(1-methyl-1H-1,2,4-triazol-3-yl)methyl]-1-[(2,4,5-trifluorophenyl)methyl]-1,3,5-triazinane-2,4-dione]",Respiratory symptoms sub-total score as compared with the placebo group,375/125 mg group (p=0.0153) and 750/250 mg group (p=0.0032),a significant improving effect was observed
same,Change up to 120 hours in total score of 12 COVID-19 symptoms per unit time as compared with the placebo group,375/125 mg group and 750/250 mg group,"a numerical decrease tendency was observed as compared with the placebo group, but a statistically significant difference was not observed"
same,"Change from baseline up to 120 hours in sub-total score per unit time, acute symptoms: Adjusted mean value by covariance analysis (standard error)",[1],−2.36 (0.10)
same,"Change from baseline up to 120 hours in sub-total score per unit time, acute symptoms: Difference of adjusted mean value from that of placebo group (standard error)",[1],−0.20 (0.12)
same,"Change from baseline up to 120 hours in sub-total score per unit time, acute symptoms: Maximum value",[1],0.45
same,"Change from baseline up to 120 hours in sub-total score per unit time, acute symptoms: Mean value",[1],−2.52
same,"Change from baseline up to 120 hours in sub-total score per unit time, acute symptoms: Median value",[1],−2.55
same,"Change from baseline up to 120 hours in sub-total score per unit time, acute symptoms: Minimum value",[1],−6.19
same,"Change from baseline up to 120 hours in sub-total score per unit time, gastrointestinal symptoms: Adjusted mean value by covariance analysis (standard error)",[1],−1.27 (0.14)
same,"Change from baseline up to 120 hours in sub-total score per unit time, gastrointestinal symptoms: Difference of adjusted mean value from that of placebo group (standard error)",[1],0.06 (0.18)
same,"Change from baseline up to 120 hours in sub-total score per unit time, gastrointestinal symptoms: Maximum value",[1],−0.16
same,"Change from baseline up to 120 hours in sub-total score per unit time, gastrointestinal symptoms: Mean value",[1],−1.39
same,"Change from baseline up to 120 hours in sub-total score per unit time, gastrointestinal symptoms: Median value",[1],−0.99
same,"Change from baseline up to 120 hours in sub-total score per unit time, gastrointestinal symptoms: Minimum value",[1],−5.80
same,"Change from baseline up to 120 hours in sub-total score per unit time, major clinical symptoms: Adjusted mean value by covariance analysis (standard error)",[1],−3.34 (0.14)
same,"Change from baseline up to 120 hours in sub-total score per unit time, major clinical symptoms: Difference of adjusted mean value from that of placebo group (standard error)",[1],−0.34 (0.17)
same,"Change from baseline up to 120 hours in sub-total score per unit time, major clinical symptoms: Maximum value",[1],0.55
same,"Change from baseline up to 120 hours in sub-total score per unit time, major clinical symptoms: Mean value",[1],−3.56
same,"Change from baseline up to 120 hours in sub-total score per unit time, major clinical symptoms: Median value",[1],−3.33
same,"Change from baseline up to 120 hours in sub-total score per unit time, major clinical symptoms: Minimum value",[1],−9.76
same,"Change from baseline up to 120 hours in sub-total score per unit time, respiratory symptoms: Adjusted mean value by covariance analysis (standard error)",[1],−2.09 (0.12)
same,"Change from baseline up to 120 hours in sub-total score per unit time, respiratory symptoms: Difference of adjusted mean value from that of placebo group (standard error)",[1],−0.37 (0.15)
same,"Change from baseline up to 120 hours in sub-total score per unit time, respiratory symptoms: Maximum value",[1],1.30
same,"Change from baseline up to 120 hours in sub-total score per unit time, respiratory symptoms: Mean value",[1],−2.28
same,"Change from baseline up to 120 hours in sub-total score per unit time, respiratory symptoms: Median value",[1],−1.99
same,"Change from baseline up to 120 hours in sub-total score per unit time, respiratory symptoms: Minimum value",[1],−6.44
same,"Change from baseline up to 120 hours in sub-total score per unit time, systemic symptoms: Adjusted mean value by covariance analysis (standard error)",[1],−3.31 (0.14)
same,"Change from baseline up to 120 hours in sub-total score per unit time, systemic symptoms: Difference of adjusted mean value from that of placebo group (standard error)",[1],0.15 (0.18)
same,"Change from baseline up to 120 hours in sub-total score per unit time, systemic symptoms: Maximum value",[1],1.80
same,"Change from baseline up to 120 hours in sub-total score per unit time, systemic symptoms: Mean value",[1],−3.71
same,"Change from baseline up to 120 hours in sub-total score per unit time, systemic symptoms: Median value",[1],−3.18
same,"Change from baseline up to 120 hours in sub-total score per unit time, systemic symptoms: Minimum value",[1],−14.30
same,"Change from baseline up to 120 hours in sub-total score per unit time, acute symptoms: Adjusted mean value by covariance analysis (standard error)",[2],−2.50 (0.10)
same,"Change from baseline up to 120 hours in sub-total score per unit time, acute symptoms: Difference of adjusted mean value from that of placebo group (standard error)",[2],−0.33 (0.12)
same,"Change from baseline up to 120 hours in sub-total score per unit time, acute symptoms: Maximum value",[2],0.52
same,"Change from baseline up to 120 hours in sub-total score per unit time, acute symptoms: Mean value",[2],−2.63
same,"Change from baseline up to 120 hours in sub-total score per unit time, acute symptoms: Median value",[2],−2.71
